One assay has as its system Toledo cells. Put plainly: Cell proliferation assay, Toledo cells (MTS, 72 h). The assay is classed as cell-based. Particulars: Homo sapiens, Toledo cells, MTS, read-out: Toledo IC50. The essentials: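 IC50 was derived from 490 nm absorbance after a 2 h MTS step. Before that, compounds at 1.5–10000 nM final (nine points) acted on Toledo cells for 72 h at 37 °C, 5% CO2. Cells were seeded at 30000/well in 10% FBS RPMI-1640 and rested 4 h before dosing.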
On to `CC(C)c1ccccc1C1=CCCC1N1CC2(CCN(c3ccc(C(=O)NS(=O)(=O)c4cc5c(c([N+](=O)[O-])c4)N[C@@H]([C@H]4CC[C@](C)(O)CC4)CO5)c(Oc4cnc5[nH]cc(F)c5c4)c3)CC2)C1` (stereo partly drawn) [Example D-77, 2-((3-fluoro-1H-pyrrolo[2,3-b]pyridin-5-yl)oxy)-N-(((S)-3-((1r,4S)-4-hydroxy-4-methylcyclohexyl)-5-nitro-3,4-dihydro-2H-benzo[b] [1,4]oxazin-7-yl)sulfonyl)-4-(2-(2-(2-isopropylphenyl)cyclopent-2-en-1-yl)-2,7-diazaspiro[3.5]nonan-7-yl)benzamide], for which the IC50 was 1 nM.

For the compound `CC(C)c1ccccc1[C@@H]1CSCCN1C1CC2(CCN(c3ccc(C(=O)NS(=O)(=O)c4cc5c(c([N+](=O)[O-])c4)N[C@@H]([C@H]4CC[C@](C)(O)CC4)CO5)c(Oc4cnc5[nH]cc(F)c5c4)c3)CC2)C1` (single isomer, unassigned) [Example D-78, 2-((3-fluoro-1H-pyrrolo[2,3-b]pyridin-5-yl)oxy)-N-(((S)-3-((1r,4S)-4-hydroxy-4-methylcyclohexyl)-5-nitro-3,4-dihydro-2H-benzo[b] [1,4]oxazin-7-yl)sulfonyl)-4-(2-((R or S)-3-(2-isopropylphenyl)thiomorpholino)-7-azaspiro[3.5]nonan-7-yl)benzamide], the IC50 was determined as 1 nM.

Consider `Cc1nc2[nH]ccc2cc1Oc1cc(N2CCC3(CC2)CC(N2CCC[C@H]2c2ccccc2C(C)C)C3)ccc1C(=O)NS(=O)(=O)c1cc2c(c([N+](=O)[O-])c1)N[C@@H]([C@H]1CC[C@](C)(O)CC1)CO2` (single isomer, unassigned) [Example D-39, N-(((S)-3-((1r,4S)-4-hydroxy-4-methylcyclohexyl)-5-nitro-3,4-dihydro-2H-benzo[b][1,4]oxazin-7-yl)sulfonyl)-4-(2-((R or S)-2-(2-isopropylphenyl)pyrrolidin-1-yl)-7-azaspiro[3.5]nonan-7-yl)-2-((6-methyl-1H-pyrrolo[2,3-b]pyridin-5-yl)oxy)benzamide], for which the IC50 is 1 nM.

For the compound `CC(C)c1ccccc1[C@@H]1CCCN1C1CC2(CCN(c3ccc(C(=O)NS(=O)(=O)c4cc5c(c([N+](=O)[O-])c4)N[C@@H]([C@H]4CC[C@](C)(O)CC4)CO5)c(Oc4cc5cc[nH]c5nc4OC4CC4)c3)CC2)C1` (single isomer, unassigned) [Example D-67, 2-((6-cyclopropoxy-1H-pyrrolo[2,3-b]pyridin-5-yl)oxy)-N-(((S)-3-((1r,4S)-4-hydroxy-4-methylcyclohexyl)-5-nitro-3,4-dihydro-2H-benzo [b][1,4]oxazin-7-yl)sulfonyl)-4-(2-((R or S)-2-(2-isopropylphenyl)pyrrolidin-1-yl)-7-azaspiro[3.5]nonan-7-yl)benzamide], the IC50 was 1 nM.

Consider `CC(C)c1ccccc1[C@@H]1CCCN1C1CC2(CCN(c3ccc(C(=O)NS(=O)(=O)c4cc5c(c([N+](=O)[O-])c4)N[C@@H]([C@H]4CC[C@](C)(O)CC4)CO5)c(Oc4cc5cc[nH]c5nc4OC[C@H]4CCN4C(=O)OC(C)(C)C)c3)CC2)C1` (single isomer, unassigned) [Example D-213, tert-butyl (R)-2-(((5-(2-(((S)-3-((1r,4S)-4-hydroxy-4-methylcyclohexyl)-5-nitro-3,4-dihydro-2H-benzo[b][1,4]oxazin-7-yl)sulfonyl)carbamoyl)-5-(2-((R or S)-2-(2-isopropylphenyl)pyrrolidin-1-yl)-7-azaspiro[3.5]nonan-7-yl)phenoxy)-1H-pyrrolo[2,3-b]pyridin-6-yl)oxy)methyl)azetidine-1-carboxylate], for which the IC50 stood at 1 nM.

Regarding `CO[C@H]1CC[C@H]([C@@H]2COc3cc(S(=O)(=O)NC(=O)c4ccc(N5CCC6(CC5)CC(N5CCC[C@H]5c5ccccc5C(C)C)C6)cc4Oc4cnc5[nH]cc(F)c5c4)cc([N+](=O)[O-])c3N2)CC1` (single isomer, unassigned) [Example D-45, 2-((3-fluoro-1H-pyrrolo[2,3-b]pyridin-5-yl)oxy)-4-(2-((R or S)-2-(2-isopropylphenyl)pyrrolidin-1-yl)-7-azaspiro[3.5]nonan-7-yl)-N-(((R)-3-((1r,4S)-4-methoxycyclohexyl)-5-nitro-3,4-dihydro-2H-benzo[b][1,4]oxazin-7-yl)sulfonyl)benzamide], the IC50 came to 1 nM.

On to `CC(C)c1ccccc1[C@@H]1CCCN1C1CC2(CCN(c3ccc(C(=O)NS(=O)(=O)c4cc5c(c([N+](=O)[O-])c4)N[C@@H]([C@H]4CC[C@](C)(O)CC4)CO5)c(Oc4cc5cc[nH]c5nc4O[C@H]4CCNC4)c3)CC2)C1` (single isomer, unassigned) [Example D-225, N-(((S)-3-((1r,4S)-4-hydroxy-4-methylcyclohexyl)-5-nitro-3,4-dihydro-2H-benzo[b][1,4]oxazin-7-yl)sulfonyl)-4-(2-((R or S)-2-(2-isopropylphenyl)pyrrolidin-1-yl)-7-azaspiro[3.5]nonan-7-yl)-2-((6-(((S)-pyrrolidin-3-yl)oxy)-1H-pyrrolo[2,3-b]pyridin-5-yl)oxy)benzamide], for which the IC50 is 1 nM.

`CC(=O)N1CCN(C2CC3(CCN(c4ccc(C(=O)NS(=O)(=O)c5cc6c(c([N+](=O)[O-])c5)N[C@@H]([C@H]5CC[C@](C)(O)CC5)CO6)c(Oc5cnc6[nH]cc(F)c6c5)c4)CC3)C2)[C@H](c2ccccc2C(C)C)C1` (single isomer, unassigned) [Example D-140, 4-(2-((R or S)-4-acetyl-2-(2-isopropylphenyl)piperazin-1-yl)-7-azaspiro[3.5]nonan-7-yl)-2-((3-fluoro-1H-pyrrolo [2,3-b]pyridin-5-yl)oxy)-N-(((S)-3-((1r,4S)-4-hydroxy-4-methylcyclohexyl)-5-nitro-3,4-dihydro-2H-benzo[b][1,4]oxazin-7-yl)sulfonyl)benzamide]: the IC50 amounted to 1 nM.

Regarding `COc1nc2[nH]ccc2cc1Oc1cc(N2CCC3(CC2)CC(N2CCOC[C@H]2c2ccccc2C(C)C)C3)ccc1C(=O)NS(=O)(=O)c1cnc(NC[C@H]2CC[C@](C)(O)CC2)c([N+](=O)[O-])c1` (single isomer, unassigned) [Example A-125, N-((6-((((1r,4r)-4-hydroxy-4-methyl-cyclohexyl)methyl)amino)-5-nitropyridin-3-yl)sulfonyl)-4-(2-((R or S)-3-(2-isopropylphenyl)morpholino)-7-azaspiro[3.5]nonan-7-yl)-2-((6-methoxy-1H-pyrrolo[2,3-b]pyridin-5-yl)oxy)benzamide], the IC50 is 2 nM.

With `CC(C)c1ccccc1[C@@H]1CCCN1C1CC2(CCN(c3ccc(C(=O)NS(=O)(=O)c4cc5c(c([N+](=O)[O-])c4)N[C@@H](C4CCOCC4)CO5)c(Oc4cnc5[nH]cc(F)c5c4)c3)CC2)C1` (single isomer, unassigned) [Example D-48, 2-((3-fluoro-1H-pyrrolo[2,3-b]pyridin-5-yl)oxy)-4-(2-((R or S)-2-(2-isopropylphenyl)pyrrolidin-1-yl)-7-azaspiro[3.5]nonan-7-yl)-N-(((S)-5-nitro-3-(tetrahydro-2H-pyran-4-yl)-3,4-dihydro-2H-benzo[b][1,4]oxazin-7-yl)sulfonyl) benzamide], the IC50 stood at 1 nM.

Turning to `COCCOc1nc2[nH]ccc2cc1Oc1cc(N2CCC3(CC2)CN([C@H]2CCC[C@H]2c2ccccc2C(C)C)C3)ccc1C(=O)NS(=O)(=O)c1ccc(NC[C@H]2CC[C@](C)(O)CC2)c([N+](=O)[O-])c1` (racemic) [Example D-76, N-((4-((((1r,4r)-4-hydroxy-4-methylcyclohexyl)methyl)amino)-3-nitrophenyl)sulfonyl)-4-(2-((1S,2S and 1R,2R)-2-(2-isopropylphenyl)cyclopentyl)-2,7-diazaspiro[3.5]nonan-7-yl)-2-((6-(2-methoxyethoxy)-1H-pyrrolo[2,3-b]pyridin-5-yl)oxy)benzamide], the IC50 stood at 1 nM.

In the case of `CO[C@H]1CC[C@@H]([C@@H]2COc3cc(S(=O)(=O)NC(=O)c4ccc(N5CCC6(CC5)CC(N5CCC[C@H]5c5ccccc5C(C)C)C6)cc4Oc4cnc5[nH]cc(F)c5c4)cc([N+](=O)[O-])c3N2)CC1` (single isomer, unassigned) [Example D-46, 2-((3-fluoro-1H-pyrrolo[2,3-b]pyridin-5-yl)oxy)-4-(2-((R or S)-2-(2-isopropylphenyl)pyrrolidin-1-yl)-7-azaspiro[3.5]nonan-7-yl)-N-(((R)-3-((1s,4S)-4-methoxycyclohexyl)-5-nitro-3,4-dihydro-2H-benzo[b][1,4]oxazin-7-yl)sulfonyl)benzamide], the IC50 worked out at 1 nM.

For `CC(C)c1ccccc1[C@@H]1CCCN1C1CC2(CCN(c3ccc(C(=O)NS(=O)(=O)c4cc5c(c([N+](=O)[O-])c4)N[C@@H]([C@H]4CC[C@](C)(O)CC4)CO5)c(Oc4cc5cc[nH]c5nc4OCC(F)(F)F)c3)CC2)C1` (single isomer, unassigned) [Example D-58, N-(((S)-3-((1r,4S)-4-hydroxy-4-methylcyclohexyl)-5-nitro-3,4-dihydro-2H-benzo[b][1,4]oxazin-7-yl)sulfonyl)-4-(2-((R or S)-2-(2-isopropylphenyl)pyrrolidin-1-yl)-7-azaspiro[3.5]nonan-7-yl)-2-((6-(2,2,2-trifluoroethoxy)-1H-pyrrolo[2,3-b]pyridin-5-yl)oxy) benzamide], the IC50 worked out at 1 nM.

Still in this assay, the particulars now being: Homo sapiens, Toledo, read-out: Toledo IC50 (nM).
In the case of `CC(C)c1ccccc1[C@@H]1COCCN1C1CC2(CCN(c3ccc(C(=O)NS(=O)(=O)c4cc5c(c([N+](=O)[O-])c4)N[C@@H]([C@H]4CC[C@](C)(O)CC4)CO5)c(Oc4cnc5[nH]cc(Br)c5c4)c3)CC2)C1` (single isomer, unassigned) [Example D-3, 2-((3-bromo-1H-pyrrolo[2,3-b]pyridin-5-yl)oxy)-N-((S)-3-((1r,4S)-4-hydroxy-4-methylcyclohexyl)-5-nitro-3,4-dihydro-2H-benzo [b][1,4]oxazin-7-yl)sulfonyl)-4-(2-((R or S)-3-(2-isopropylphenyl)morpholino)-7-azaspiro[3.5]nonan-7-yl) benzamide], the 50% inhibitory concentration (IC50) came to 1 nM.

As a reminder, the IC50 is the concentration at which inhibition is half-maximal.

Source of the values: patent US20230159527A1, “COMPOUNDS AS BCL-2 INHIBITORS” (Fochon Pharmaceuticals, Ltd., priority 2020, published 2023).
